For series [1], the system named is immortalized CDCs. The series is classed as cell-based, Human. Here is the method: (§1) Cells were exposed to 5 μM of 6-bromoindirubin-3′-oxime (BIO, Sigma-Aldrich) or 4-Benzyl-2-(naphthalene-1-yl)-[1,2,4]thiadiazolidine-3,5-dione (Tideglusib, Sigma-Aldrich) for 48 or 72 hours in complete media.
Series [2] relates to CDC EVs. Nature of the series: qPCR of miRs in EVs from BIO-exposed versus vehicle-exposed CDCs. The series is classed as cell-based, Human. The conditions noted are these: EVs of LP, LPL, imCDC exposed to BIO vs vehicle. Here is the method: Extracellular Vesicles were harvested from primary CDCs at passage 5 or older passages from transduced cells using a hypoxic cycling method used previously. Briefly, cells were grown to confluence at 20% O2/5% CO2 at 37° C., and then cells were serum-free at 2% O2/5% CO2 at 37° C. overnight after one wash. Conditioned media was collected and filtered through 0.45 μm filter to remove apoptotic bodies and cellular debris and frozen for later use at −80° C. EVs were purified using centrifugal ultrafiltration with a 1000 KDa molecular weight cutoff filter (Sartorius). EV preparations were analyzed through Malvern Nanosight NS300 Instrument (Malvern Instruments) with the following acquisition parameters: camera levels of 15, detection level less than or equal to 5, number of videos taken 4, and video length of 30 s.
Cell RNA was isolated using a miRNeasy Mini Kit (Qiagen). Exosome RNA was isolated using the Urine Exosome RNA Isolation Kit (Norgen Biotek Corp.). Reverse transcription was performed using High Capacity RNA to cDNA (Thermo Fisher Scientific) or TaqMan® microRNA Reverse Transcription Kit (Applied Biosystems) for RNA and micro RNA, respectively. […] Samples were processed and analyzed using a QuantStudio™ 12K Flex Real-Time PCR system and each reaction was performed in triplicate samples (with housekeeping genes hprt1 for mRNA and miR23a for microRNA). […]
For orientation: Quantitative PCR measures a nucleic acid by following its amplification.

The test system of series [3] is EXTL1. Nature of the series: Western blot of EXTL1 protein. The series is classed as cell-based, Human. The conditions noted are these: CDC (LP) exposure to BIO. Here is the method: (§2) Cell lysates were collected for ELISA and western blot. For ELISA, 4×10^5 cells were collected and pelleted at 1,000 rpm for 5 min at 4° C. Cell pellets were lysed in 1× lysis buffer (Affymetrix eBioscience InstantOne ELISA kit) and incubated for 10 min at room temperature with regular agitation. For western blot, cells were pelleted and resuspended in 1× RIPA buffer (Alfa Aesar) with protease inhibitor on ice for 30 min. Protein lysates were isolated by centrifugation at 14,000 rpm for 15 min at 4° C. Protein concentration was measured using a DC™ Protein Assay kit (Bio-Rad).
Background: Immunoblotting shows a protein as a band on a membrane.

Series [4] concerns CDCs. Nature of the series: Flow cytometry of CD90, CD105, DDR2 and LRP5/6. It counts as cell-based, Human. Here is the method: as §1
Cells were harvested and counted (2×10^5 cells per condition). Cells were washed with 1% bovine serum albumin (BSA) in 1× phosphate-buffered saline (PBS) and stained with the appropriate antibody (BD Pharmingen) for 1 hr at 4° C. Cells were then washed again and resuspended in 1% BSA in 1×PBS. BD Cytofix/Cytoperm™ kit was used for cell permeabilization before staining. Flow analysis was done using a BD FACS Canto™ II instrument.

In series [5] the test system is SCID/beige mice with acute myocardial infarction. In words: Mouse acute MI model (echocardiography, Masson's trichrome histology, mortality). The series is classed as in vivo. The conditions noted are these: for myocardial function in mice with MI, drugs given independent of CDCs: relative to controls. Here is the method: Acute myocardial infarction was induced in three-month-old male severe combined immunodeficient (SCID)/beige mice (n=5-7 animals per group). Within 10 min of coronary ligation, 1×10^5 cells, EVs, drugs (or vehicle) were injected intramyocardially.
Echocardiography. Echocardiography study was performed in the SCID/beige at 24 hr (baseline) and three weeks after surgery using Vevo 3100 or 770 Imaging System (Visual Sonics) as described. The average of the left ventricular ejection fraction was analyzed from multiple left ventricular end-diastolic and left ventricular end-systolic measurements.
Animals were sacrificed 3 weeks after MI induction. Hearts were harvested and a transverse cut was made slightly above the MI suture. The apical portion was then embedded in optimum cutting temperature solution in a base mold/embedding ring block (Tissue Tek). Blocks were immediately frozen by submersion in cold 2-methylbutane. Hearts were sectioned at a thickness of 5 μm.
Two slides containing a total of four sections per heart were stained using Masson's trichrome stain. In brief, sections were treated overnight in Bouin's solution. Slides were then rinsed for 10 min under running water and stained with Weigert's hematoxylin for 5 min. Slides were then rinsed and stained with scarlet-acid fuchsin for 5 min and rinsed again. Slides were then stained with phosphotungstic/phosphomolybdic, aniline blue, and 2% acetic acid for 5 min each. Slides were then rinsed, dried, and mounted using DPX mounting media.

The subject of series [6] is β-catenin. Nature of the series: Total β-catenin ELISA of cells. It counts as cell-based, Human. The conditions noted are these: for duration / decay of effect on β-catenin after GSK3β inhibition: CDCs, BIO (reversible) vs tideglusib (irreversible). Here is the method: as §2, §1
Total β-catenin ELISA was performed according the protocol described with a final sample concentration of 0.01 mg/ml and positive control of 0.1 mg/ml (Affymetrix eBioscience InstantOne™ ELISA).

The subject of series [7] is CDCs. In words: RNA sequencing and qPCR of BIO-exposed versus vehicle-exposed CDCs (LP, LPL, imCDC). The series is classed as cell-based, Human. Here is the method: Cell RNA was isolated using a miRNeasy Mini Kit (Qiagen). Exosome RNA was isolated using the Urine Exosome RNA Isolation Kit (Norgen Biotek Corp.). Reverse transcription was performed using High Capacity RNA to cDNA (Thermo Fisher Scientific) or TaqMan® microRNA Reverse Transcription Kit (Applied Biosystems) for RNA and micro RNA, respectively. Real-time PCR was performed using TaqMan Fast Advanced Master Mix and the appropriate TaqMan® Gene Expression Assay (Thermo Fisher Scientific). Samples were processed and analyzed using a QuantStudio™ 12K Flex Real-Time PCR system and each reaction was performed in triplicate samples (with housekeeping genes hprt1 for mRNA and miR23a for microRNA). The gene expression assays/microRNAs used in this study were as follows (Thermo Fisher Scientific):
Cell and exosome RNA samples were sequenced at the Cedars Sinai Genomics Core. Total RNA and Small RNA were analyzed using an Illumina NextSeq 500 platform for cell and exosome samples respectively.
as §1
To understand how β-catenin drives potency, the transcriptomes of LP CDCs to those of the same cell batches after exposure to BIO were compared. As stated above, three scenarios associated with low potency were identified: donor-related, in which all lots from a given donor lack potency; lot-dependent, in which some lots are potent and others are not; and immortalized CDCs (imCDCs). Using RNA sequencing, LP cells from each scenario were compared after exposure to BIO versus vehicle alone. […] Differential expression of microRNAs (miRs) between the two groups further identified a cognate miR coregulated with mest (miR-335; FIG. 3C, FIGS. 9D and 9E). […] Mest modulates Wnt/β-catenin signaling indirectly through glucosyltransferases that prevent LRP5/6 receptor maturation. […]

Each structure is given as a SMILES string.

`O=C1Nc2cc(Br)ccc2/C1=C1/Nc2ccccc2/C1=N\O` [BIO, 6-bromoindirubin-3′-oxime]: the “cell growth and viability” value in series [1] is “cell growth and viability were undermined”. In addition, the “EV levels of miR-335” value in series [2] was “decreased significantly”. Besides, in series [3], the EXTL1 protein levels result is recorded as “decreased EXTL1 protein levels”. Further, in series [4] (BIO-exposed LP cells), the “expression of CD90” value is recorded as “decreased the expression of CD90”, the “expression of CD105” value is “without affecting” and the “expression of DDR2” value is “without affecting”. In series [4] (LP CDCs exposed to BIO), the “LRP5/6 level (flow cytometry)” value is listed as “upregulated its glycosylation target LRP5/6 (although that difference was not statistically significant”. Also, the “potency of immortalized CDCs after exposure to BIO” value in series [5] (imCDC pre-exposed to BIO, then injected) was “restored potency”. Also, the “myocardial function in mice with MI, drugs given independent of CDCs” value in series [5] is on record as “Neither BIO nor the canonical Wnt inhibitor JW67 significantly altered myocardial function”. The “concentration at which BIO is maximally effective in CDCs (β-catenin ELISA)” value in series [6] (CDCs exposed to increasing concentrations of BIO) turned out to be 5 µM. Moreover, in series [6], the “duration / decay of effect on β-catenin after GSK3β inhibition” value was “more rapid decay of effect”. For the same compound, in series [6] (LP CDC line exposed to 5 μM BIO vs vehicle), the β-catenin levels entry is listed as “increase β-catenin levels”. In series [7] (BIO vs vehicle, LP, LPL and imCDC), the “miR-335 expression in cells” value was “downregulated”. In addition, the downregulation of mest in series [7] (BIO vs vehicle, fold changes pooled over LP, LPL and imCDC) was approximately 30 fold. Also, the LRP5/6 transcripts entry in series [7] (BIO-exposed LP, LPL and imCDCs, qPCR) is reported as “unchanged”.

`O=C1Nc2ccccc2C12OCC1(CO2)COC2(OC1)C(=O)Nc1ccccc12` (centres unmarked) [JW67]: the “myocardial function in mice with MI, drugs given independent of CDCs” value in series [5] is “Neither BIO nor the canonical Wnt inhibitor JW67 significantly altered myocardial function”.

For the compound `O=c1sn(-c2cccc3ccccc23)c(=O)n1Cc1ccccc1` [Tideglusib, 4-Benzyl-2-(naphthalene-1-yl)-[1,2,4]thiadiazolidine-3,5-dione], the “duration / decay of effect on β-catenin after GSK3β inhibition” value in series [6] was “directionally similar but longer-lasting effects”.
